Patent publication US20240166652A1, “MODULATORS OF THE INTEGRATED STRESS PATHWAY” (Calico Life Sciences LLC, priority 2017, published 2024)

What follows are molecules tested on ATF4 luciferase reporter in HEK293T cells (assay: ATF4-Luc assay (ATF4 luciferase reporter, tunicamycin-treated HEK293T cells)). Conditions: Homo sapiens, HEK-293T; HEK293T cells carrying the ATF4 luciferase reporter, 1 μg/mL tunicamycin, 7 hours.
Assay type: cell-based, human

SMILES | EC50 [nM]
CN(CC(=O)NC12CC(NC(=O)COc3ccc(Cl)c(F)c3)(C1)C2)C(=O)c1ccc(Cl)cc1 [Compound 204, 4-chloro-N-[2-({3-[2-(4-chloro-3-fluorophenoxy)acetamido]-bicyclo[1.1.1]pentan-1-yl}amino)-2-oxoethyl]-N-methylbenzamide] | 500 to 2000
CC(=O)N(CC(=O)NC12CC(NC(=O)COc3ccc(Cl)c(F)c3)(C1)C2)c1ccc(Cl)cc1 [Compound 205, M-acetyl-N-{3-[2-(4-chloro-3-fluorophenoxy)acetamido]bicyclo-[1.1.1]pentan-1-yl}-N^2-(4-chlorophenyl)glycinamide] | > 2000
Cc1ccc(OCC(=O)NC23CC(NC(=O)COc4ccc(Cl)c(F)c4)(C2)C3)cn1 [Compound 206, 2-(4-chloro-3-fluorophenoxy)-N-(3-{2-[(6-methylpyridin-3-yl)oxy]acetamido}bicyclo[1.1.1]pentan-1-yl)acetamide] | 50 to 250
O=C(COCc1ccccc1)NC12CC(NC(=O)COc3ccc(Cl)c(F)c3)(C1)C2 [Compound 207, 2-(benzyloxy)-N-{3-[2-(4-chloro-3-fluorophenoxy)acetamido]-bicyclo[1.1.1]pentan-1-yl}acetamide] | 50 to 250
O=C(COCc1ccccc1)NC12CC(NC(=O)COc3ccc(Cl)cc3)(C1)C2 [Compound 208, 2-(benzyloxy)-N-{3-[2-(4-chlorophenoxy)acetamido]bicyclo[1.1.1]pentan-1-yl}acetamide] | 50 to 250
O=C(COc1ccc(Cl)c(Cl)c1)NC12CCCC(NC(=O)COc3ccc(Cl)c(Cl)c3)(C1)C2 [Compound 209] | > 2000
Cc1ccc(CC(=O)NC23CC(NC(=O)COc4ccc(Cl)c(F)c4)(C2)C3)cn1 [Compound 210, 2-(4-chloro-3-fluorophenoxy)-N-{3-[2-(6-methylpyridin-3-yl)acetamido]bicyclo[1.1.1]pentan-1-yl}acetamide] | > 2000
O=C(COCc1ccc(C(=O)O)cc1)NC12CC(NC(=O)COc3ccc(Cl)c(F)c3)(C1)C2 [Compound 211] | > 2000
O=C(COCc1cccc(C(=O)O)c1)NC12CC(NC(=O)COc3ccc(Cl)c(F)c3)(C1)C2 [Compound 212, 3-{[2-({3-[2-(4-chloro-3-fluorophenoxy)acetamido]bicyclo[1.1.1]pentan-1-yl}amino)-2-oxoethoxy]methyl}benzoic Acid] | > 2000
O=C(COc1ccc(Cl)c(F)c1)NC12CC(NC(=O)COc3ccc(Cl)cn3)(C1)C2 [Compound 213, 2-(4-chloro-3-fluorophenoxy)-N-(3-{2-[(5-chloropyridin-2-yl)oxy]acetamido}bicyclo[1.1.1]pentan-1-yl)acetamide] | 50 to 250
O=C(COc1ccc(Cl)c(F)c1)NC12CC(NC(=O)COc3ccc(C(F)(F)F)cn3)(C1)C2 [Compound 214, 2-(4-chloro-3-fluorophenoxy)-N-[3-(2-{[5-(trifluoromethyl)pyridin-2-yl]oxy}acetamido)bicyclo[1.1.1]pentan-1-yl]acetamide] | 50 to 250
N#Cc1ccc(OCC(=O)NC23CC(NC(=O)COc4ccc(Cl)c(F)c4)(C2)C3)nc1 [Compound 215, 2-(4-chloro-3-fluorophenoxy)-N-(3-{2-[(5-cyanopyridin-2-yl)oxy]acetamido}bicyclo[1.1.1]pentan-1-yl)acetamide] | 50 to 250
Cc1cc(OCC(=O)NC23CC(NC(=O)COc4ccc(Cl)c(F)c4)(C2)C3)ncc1Cl [Compound 216, 2-(4-chloro-3-fluorophenoxy)-N-(3-{2-[(5-chloro-4-methylpyridin-2-yl)oxy]acetamido}bicyclo[1.1.1]pentan-1-yl)acetamide] | 50 to 250
O=C(COCc1n[nH]c(=O)o1)NC12CC(NC(=O)COc3ccc(Cl)c(F)c3)(C1)C2 [Compound 218, 2-(4-chloro-3-fluorophenoxy)-N-(3-{2-[(5-oxo-4,5-dihydro-1,3,4-oxadiazol-2-yl)methoxy]acetamido}bicyclo[1.1.1]pentan-1-yl)acetamide] | 500 to 2000
O=C(COc1ccc(S(F)(F)(F)(F)F)cc1)NC12CC(NC(=O)COc3ccc(Cl)c(F)c3)(C1)C2 [Compound 219, 2-(4-chloro-3-fluorophenoxy)-N-(3-{2-[4-(pentafluoro-λ^6-sulfanyl)phenoxy]acetamido}bicyclo[1.1.1]pentan-1-yl)acetamide] | < 10
Cc1cc(OCC(=O)NC23CC(NC(=O)COc4ccc(Cl)c(F)c4)(C2)C3)cc(C)n1 [Compound 220, 2-(4-chloro-3-fluorophenoxy)-N-(3-{2-[(2,6-dimethylpyridin-4-yl)oxy]acetamido}bicyclo[1.1.1]pentan-1-yl)acetamide] | 500 to 2000
CC(C)(C)c1ccc(OCC(=O)NC23CC(NC(=O)COc4ccc(Cl)c(F)c4)(C2)C3)cn1 [Compound 221, 2-[(6-tert-butylpyridin-3-yl)oxy]-N-{3-[2-(4-chloro-3-fluorophenoxy)acetamido]bicyclo[1.1.1]pentan-1-yl}acetamide] | 500 to 2000

SMILES | EC50 [nM]
O=C(COc1ccc(Cl)c(F)c1)NC12CC(NC(=O)COc3cnc(C(F)(F)F)c(Cl)c3)(C1)C2 [Compound 222, 2-(4-chloro-3-fluorophenoxy)-N-[3-(2-{[5-chloro-6-(trifluoromethyl)pyridin-3-yl]oxy}acetamido)bicyclo[1.1.1]pentan-1-yl]acetamide] | < 10
COC(=O)c1cc(OCC(=O)NC23CC(NC(=O)COc4ccc(Cl)c(F)c4)(C2)C3)ccc1Cl [Compound 223, methyl 2-chloro-5-[2-({3-[2-(4-chloro-3-fluorophenoxy)acetamido]-bicyclo[1.1.1]pentan-1-yl}amino)-2-oxoethoxy]benzoate] | 500 to 2000
O=C(COc1ccc(Cl)c(F)c1)NC12CC(NC(=O)COc3ccc(Cl)c(CO)c3)(C1)C2 [Compound 224, 2-(4-chloro-3-fluorophenoxy)-N-(3-{2-[4-chloro-3-(hydroxymethyl)phenoxy]-acetamido}bicyclo[1.1.1]pentan-1-yl)acetamide] | 50 to 250
O=C(COc1ccc(Cl)nc1)NC12CC(NC(=O)COc3ccc(Cl)c(F)c3)(C1)C2 [Compound 225, 2-(4-chloro-3-fluorophenoxy)-N-(3-{2-[(6-chloropyridin-3-yl)oxy]acetamido}bicyclo[1.1.1]pentan-1-yl)acetamide] | 10 to 50
Cc1cc(OCC(=O)NC23CC(NC(=O)COc4ccc(Cl)c(F)c4)(C2)C3)cnc1Cl [Compound 226, 2-(4-chloro-3-fluorophenoxy)-N-(3-{2-[(6-chloro-5-methylpyridin-3-yl)oxy]acetamido}bicyclo[1.1.1]pentan-1-yl)acetamide] | 10 to 50
O=C(COc1ccc(Cl)c(F)c1)NC12CC(NC(=O)COc3cnc(Cl)c(F)c3)(C1)C2 [Compound 227, 2-(4-chloro-3-fluorophenoxy)-N-(3-{2-[(6-chloro-5-fluoropyridin-3-yl)oxy]acetamido}bicyclo[1.1.1]pentan-1-yl)acetamide] | < 10
Nc1cc(OCC(=O)NC23CC(NC(=O)COc4ccc(Cl)c(F)c4)(C2)C3)ccc1Cl [Compound 228, 2-(3-amino-4-chlorophenoxy)-N-{3-[2-(4-chloro-3-fluorophenoxy)acetamido]-bicyclo[1.1.1]pentan-1-yl}acetamide] | < 10
Cc1ccc(OCC(=O)NC23CC(NC(=O)COc4ccc(Cl)c(F)c4)(C2)C3)c(N)n1 [Compound 229, 2-[(2-amino-6-methylpyridin-3-yl)oxy]-N-{3-[2-(4-chloro-3-fluorophenoxy)acetamido]bicyclo[1.1.1]pentan-1-yl}acetamide] | 500 to 2000
O=C(COc1cncc(C(F)(F)F)c1)NC12CC(NC(=O)COc3ccc(Cl)c(F)c3)(C1)C2 [Compound 230, 2-(4-chloro-3-fluorophenoxy)-N-[3-(2-{[5-(trifluoromethyl)pyridin-3-yl]oxy}acetamido)bicyclo[1.1.1]pentan-1-yl]acetamide] | 10 to 50
O=C(COc1ccc(Cl)c(F)c1)NC12CC(NC(=O)COc3cnc(Cl)c(C(=O)O)c3)(C1)C2 [Compound 231, 2-chloro-5-[2-({3-[2-(4-chloro-3-fluorophenoxy)acetamido]-bicyclo[1.1.1]pentan-1-yl}amino)-2-oxoethoxy]pyridine-3-carboxylic Acid] | > 2000
Cc1ccc(OCC(=O)NC23CC(NC(=O)COc4ccc(Cl)c(F)c4)(C2)C3)c(C)n1 [Compound 232, 2-(4-chloro-3-fluorophenoxy)-N-(3-{2-[(2,6-dimethylpyridin-3-yl)oxy]acetamido}bicyclo[1.1.1]pentan-1-yl)acetamide] | 500 to 2000
O=C(COc1ccnc(C(F)(F)F)c1)NC12CC(NC(=O)COc3ccc(Cl)c(F)c3)(C1)C2 [Compound 233, 2-(4-chloro-3-fluorophenoxy)-N-[3-(2-{[2-(trifluoromethyl)pyridin-4-yl]oxy}acetamido)bicyclo[1.1.1]pentan-1-yl]acetamide] | 10 to 50
Cc1cc(OCC(=O)NC23CC(NC(=O)COc4ccc(Cl)c(F)c4)(C2)C3)cnc1C [Compound 234, 2-(4-chloro-3-fluorophenoxy)-N-(3-{2-[(5,6-dimethylpyridin-3-yl)oxy]acetamido}bicyclo[1.1.1]pentan-1-yl)acetamide] | 50 to 250
CC(=O)c1ccc(OCC(=O)NC23CC(NC(=O)COc4ccc(Cl)c(F)c4)(C2)C3)cn1 [Compound 235, 2-[(6-acetylpyridin-3-yl)oxy]-N-{3-[2-(4-chloro-3-fluorophenoxy)acetamido]0-bicyclo[1.1.1]pentan-1-yl}acetamide] | 50 to 250
Nc1nc(Cl)ccc1OCC(=O)NC12CC(NC(=O)COc3ccc(Cl)c(F)c3)(C1)C2 [Compound 236, 2-[(2-amino-6-chloropyridin-3-yl)oxy]-N-{3-[2-(4-chloro-3-fluorophenoxy)acetamido]bicyclo[1.1.1]pentan-1-yl}acetamide] | 10 to 50
Cc1ccc(OCC(=O)NC23CC(NC(=O)COc4ccc(Cl)c(F)c4)(C2)C3)c(Cl)n1 [Compound 237, 2-(4-chloro-3-fluorophenoxy)-N-(3-{2-[(2-chloro-6-methylpyridin-3-yl)oxy]acetamido}bicyclo[1.1.1]pentan-1-yl)acetamide] | 50 to 250
N#Cc1ccc(OCC(=O)NC23CC(NC(=O)COc4ccc(Cl)c(F)c4)(C2)C3)cn1 [Compound 238, 2-(4-chloro-3-fluorophenoxy)-N-(3-{2-[(6-cyanopyridin-3-yl)oxy]acetamido}bicyclo[1.1.1]pentan-1-yl)acetamide] | 10 to 50
